Laboratory results published in US7094770B2, “3′-or 2′-hydroxymethyl substituted nucleoside derivatives for treatment of hepatitis virus infections” (Pharmasset, Ltd., priority 2000, dated 2006).
Read-outs that look alike come from different tables or passages of the source.

How the values were obtained:
HBV [1] = assay: Cell culture assay for anti-HBV activity (2.2.15 cells, HBV DNA in medium by Southern blot); assay type: cell-based, Hepatitis B virus; settings: for EC50: read-out: Anti-HBV EC50
Description: We follow the protocol described by Korba and Gerin(Antiviral Res., 1992, 19:55) and Pai et al. (Antimicrobial Agents Chemother., 1996, 40:380) which is used widely in the field. The HepG 2 2.2.15 cells contain a stably integrated HBV genome, the transcript from which serves as a template for viral replication. The cells produce virions which are elaborated into the medium. The production of the virion DNA is monitored by analysis of medium by Southern blotting. Drugs which inhibit viral replication reduce the levels of virion DNA in the medium, relative to controls.
Confluent cells in 24 well tissue culture dishes are treated with test compounds starting at 1 nM and extending logarithmically to 10 μM (1 nM, 3.2, 10 nM, 32, 100 nM, 1 μM, 10 μM […]). Medium is changed […] every 3 days and DNA extracted from the 3, 6, and […] day samples. The virions are concentrated by polyethylene glycol precipitation (equal volume addition of PEG 8000). After cooling on ice the samples are spun and the pellets treated with SDS and Proteinase K followed by Phenol:Chloroform extraction and ethanol precipitation of the DNA. The DNA is analyzed for HBV sequences by Southern hybridization. The probe used for the analysis is a ^32P labeled Eco RI fragment from the HBV clone described by Korba et al. 3TC is used as a positive control compound with known activity against HBV.
System: The most widely used system for the study of anti-HBV agents is the hepatoma cell culture system with the HBV genome. These cells are designated as the 2.2.15 cells, AD38 cells and AD79 cells. The 2.2.15 cells were generated by the transfection of the human hepatoma cells—HepG2 with HBV DNA. (Sells, et al., Proc. Natl. Acad. Sci. USA 84:1005–1009, 1987) HBV viral replication takes place in these cells. The HBV replication can be monitored intracellularly as well as extracellularly in these cells.
Assay for Anti-HBV agents: 2.215 cells are grown in multi-well dishes in RPMI medium supplemented with 4% fetal bovine serum. After 3 to 4 days of growing the cells, they are treated with varying concentrations of the test compound(s). The test compounds are dissolved in DMSO or sterile water. Cultures without the addition of the test compounds serve as controls. The addition of the test compound(s) is repeated at 3-day intervals. The medium is changed and replaced with appropriate concentration of the test compound. At the end of the 9-day treatment period, the culture medium is harvested and processed for viral DNA. The viral DNA thus obtained is analyzed by Southern blot analysis. After the Southern transfer, the blot is subjected to hybridization to an HBV specific probe to detect HBV DNA. The hybriodization is carried out overnight. After the hybridization, free probe is removed by washing of the blots. The specific hybridization is visualized by autoradiography. Inhibition produced by the test compound is calculated with reference to the levels of HBV DNA in the control samples.

HIV-1 = assay: Anti-HIV evaluation in human PBM cells; assay type: cell-based; settings: HIV-1
Description: (§1) Human PBM cells from healthy donors, seronegative for HIV-1 and HBV, are isolated by a single-step Ficoll-Hypaque discontinuous gradient centrifugation and propagated as described previously (Schinazi et al., Antimicrobial Agents Chemother., 1990, 34:1061; 1992, 36:2423; 1993, 37:875). Compounds are screened for activity against HIV-1 and cytotoxicity by a protocol reported previously reported by Schinazi, et al. The prototype strain of HIV-1LAI obtained from the Centers for Disease Control and Prevention, Atlanta, Ga., is used as the standard virus for the studies in human PBM cells.

PBM cells = assay: Cytotoxicity in PBM cells; assay type: cell-based, human
Experimental: (§2) We also perform toxicity assays by measuring the inhibition of uptake of […] dye by treated cells. These assays are done in 96 well plates. After the standard 10 day treatment regimen medium is removed and PBS containing MTS dye added to each well. After a 2 hour incubation the absorbance of the metabolized product is measured at 490 nm.
as §1

Vero cells = assay: Cytotoxicity in Vero cells; assay type: cell-based
Experimental: as §2

HIV = settings: literature; cited from earlier work
HSV = settings: literature; cited from earlier work
[2] = Cytotoxicity in CEM cells; assay type: cell-based; settings: human
Experimental: as §2

HBV [3] = settings: background statement; cited from earlier work
[4] = biological target: reverse transcriptase of human immunodeficiency virus (Human immunodeficiency virus type 1 group M subtype B, UniProt P03366); settings: tested as the 5′-triphosphate; cited from earlier work
[5] = tested on: murine leukemia virus (MuLV); settings: literature; cited from earlier work
HSV-1 = settings: literature; cited from earlier work
HSV-2 = settings: literature; cited from earlier work
[6] = tested on: human cytomegalovirus (HCMV); settings: literature; cited from earlier work
[7] = tested on: Varicella zoster virus (VZV); settings: literature; cited from earlier work
Epstein Barr virus (EBV) = settings: literature; cited from earlier work

Compound | EC50 (HBV [1]) | EC50 (HIV-1) | IC50 (PBM cells) | IC50 (Vero cells) | Activity against HIV (in words) (HIV) | also measured
Cc1cn(C2CC(CO)C(CO)O2)c(=O)[nH]c1=O (stereo not shown) [Compound 4 (Series 1)] | > 10 µM | 87.7 µM | > 100 µM | > 100 µM | – | –
Nc1ccn([C@H]2C[C@H](CO)[C@@H](CO)O2)c(=O)n1 [2′,3′-dideoxy-3′-hydroxymethyl-cytidine] | – | – | – | – | good activity | Activity against HSV (in words) (HSV): active
Cc1cn(C2OC(CO)C(CO)C2F)c(=O)nc1N (stereo not shown) [Compound 11 (Series 2)] | < 10 µM | 112 µM | > 100 µM | > 100 µM | – | Antiviral activity (in words) (HBV [1]; virus not named): moderate activities; IC50 at 10 day [2]: > 100 µM
O=c1[nH]c(=O)n([C@@H]2O[C@H](CO)[C@@H](O)[C@@H]2F)cc1I [Fialuridine] | – | – | – | – | devoid of activity | Activity against HBV (in words) (HBV [3]): effectively inhibit replication
Nc1nc(=O)n([C@@H]2O[C@H](CO)[C@@H](O)[C@@H]2F)cc1I [Fiacitabine] | – | – | – | – | devoid of activity | Activity against HBV (in words) (HBV [3]): effectively inhibit replication
CO[C@H]1C[C@H](n2cc(C)c(=O)[nH]c2=O)O[C@@H]1CO [3′-O-methylthymidine] | – | – | – | – | inactive | Inhibition of HIV reverse transcriptase (in words) [4]: exceptionally potent inhibitor
O=c1[nH]c(=O)n(C2O[C@H](CO)[C@@H](CO)[C@@H]2O)cc1C=CBr (stereo partly drawn) [5-bromovinyl-1-(3-deoxy-3-hydroxymethyl-D-arabinofuranosyl)-uracil] | – | – | – | – | – | Activity against HSV (in words) (HSV): active
Cc1cn([C@H]2C[C@H](CO)[C@@H](CO)O2)c(=O)[nH]c1=O [3′-deoxy-3′-hydroxymethylthymidine] | – | – | – | – | devoid of activity | Activity against HBV (in words) (HBV [1]; "we discovered"): potent agent; Activity against MuLV (in words) [5]: devoid of activity; Activity against HSV-1 (in words) (HSV-1): devoid of activity; Activity against HSV-2 (in words) (HSV-2): devoid of activity; Activity against HCMV (in words) [6]: devoid of activity; Activity against VZV (in words) [7]: devoid of activity; Activity against EBV (in words) (Epstein Barr virus (EBV)): devoid of activity
Cc1cn([C@H]2C[C@H](N=[N+]=[N-])[C@@H](CO)O2)c(=O)[nH]c1=O [Zidovudine] | – | – | – | – | – | Activity against HBV (in words) (HBV [3]): inactive; Inhibition of HIV reverse transcriptase (in words) [4]: potent inhibitor
Cc1cn(C2CC(CO)N(C)O2)c(=O)[nH]c1=O (stereo not shown) [Compound 40 (Series 2)] | > 10 µM | > 100 µM | > 100 µM | > 100 µM | – | –
CN(O)C1C(CO)OC(n2cc(F)c(=O)[nH]c2=O)C1F (stereo not shown) [Compound 61 (Series 2)] | > 10 µM | 52.3 µM | > 100 µM | > 100 µM | – | –
